Source: patent US11771086B2, “Pest control composition including novel iminopyridine derivative” (priority 2012, dated 2023)

Experiments:
Assay type in all cases: in vivo
Plutella xylostella = assay: Reference Test Example 1 Pest control test of Plutella xylostella (foliar treatment, single agent); design: Plutella xylostella (Reference Test Example 1), mortality of larvae: concentration or dose not given beside the values; settings: foliar treatment, single agent
Description: After an air drying process, second instar larvae were released thereto. […] Test in duplicate.

Aphis gossypii = assay: Reference Test Example 3 Pest control test of Aphis gossypii (foliar treatment, single agent); design: Aphis gossypii (Reference Test Example 3), mortality of larvae: concentration or dose not given beside the values; settings: foliar treatment, single agent
Laodelphax striatella = assay: Reference Test Example 18 Pest control test of Laodelphax striatella (wheat seedling root treatment); settings: wheat seedling roots treated; four days after release; 20 μg/seedling
Description: The drug was absorbed from the roots for 72 hours, and then ten second instar larvae of Laodelphax striatella were each released thereto. […] The test was performed in duplicate.

FC(F)C(=S)N=c1ccccn1Cc1ccc(Cl)nc1 [Compound 1-21]
Plutella xylostella (Reference Test Example 1), mortality of larvae (Plutella xylostella): 80%
Aphis gossypii (Reference Test Example 3), mortality of larvae (Aphis gossypii): 100%
Laodelphax striatella (Reference Test Example 18), mortality of larvae (Laodelphax striatella): 100%

FC(F)(Cl)C(=S)N=c1ccccn1Cc1ccc(Cl)nc1 [Compound 1-22]
Plutella xylostella (Reference Test Example 1), mortality of larvae (Plutella xylostella): 100%
Laodelphax striatella (Reference Test Example 18), mortality of larvae (Laodelphax striatella): 100%

FC(F)(F)C(F)(F)C(=S)N=c1ccccn1Cc1ccc(Cl)nc1 [Compound 1-23]
Plutella xylostella (Reference Test Example 1), mortality of larvae (Plutella xylostella): 100%
Laodelphax striatella (Reference Test Example 18), mortality of larvae (Laodelphax striatella): 100%

C/N=C(/N=c1\ccccn1Cc1ccc(Cl)nc1)C(F)(F)F [Compound 1-42, N-[1-((6-chloropyridin-3-yl)methyl)pyridin-2(1H)-ylidene]-2,2,2-trifluoro-N′-methylacetimidamide]
Plutella xylostella (Reference Test Example 1), mortality of larvae (Plutella xylostella): 100%
Aphis gossypii (Reference Test Example 3), mortality of larvae (Aphis gossypii): 100%
Laodelphax striatella (Reference Test Example 18), mortality of larvae (Laodelphax striatella): 100%

CSCCN=C(N=c1ccccn1Cc1ccc(Cl)nc1)C(F)(F)F [Compound 1-150]
Plutella xylostella (Reference Test Example 1), mortality of larvae (Plutella xylostella): 100%
Aphis gossypii (Reference Test Example 3), mortality of larvae (Aphis gossypii): 100%
Laodelphax striatella (Reference Test Example 18), mortality of larvae (Laodelphax striatella): 80%

O=C(/N=c1\ccccn1Cc1ccc(F)nc1)C(F)F [Compound 3-3, 2,2-difluoro-N-[1-((6-fluoropyridin-3-yl)methyl)pyridin-2(1H)-ylidene]acetamide]
Plutella xylostella (Reference Test Example 1), mortality of larvae (Plutella xylostella): 50%
Aphis gossypii (Reference Test Example 3), mortality of larvae (Aphis gossypii): 100%
Laodelphax striatella (Reference Test Example 18), mortality of larvae (Laodelphax striatella): 80%

O=C(N=c1ccccn1Cc1ccc(F)nc1)C(F)(F)Cl [Compound 3-4]
Plutella xylostella (Reference Test Example 1), mortality of larvae (Plutella xylostella): 100%
Aphis gossypii (Reference Test Example 3), mortality of larvae (Aphis gossypii): 100%
Laodelphax striatella (Reference Test Example 18), mortality of larvae (Laodelphax striatella): 100%

O=C(N=c1ccccn1Cc1ccc(F)nc1)C(F)(F)C(F)(F)F [Compound 3-5]
Plutella xylostella (Reference Test Example 1), mortality of larvae (Plutella xylostella): 100%
Aphis gossypii (Reference Test Example 3), mortality of larvae (Aphis gossypii): 55%
Laodelphax striatella (Reference Test Example 18), mortality of larvae (Laodelphax striatella): 80%

Fc1ccc(Cn2ccccc2=NC(=S)C(F)(F)F)cn1 [Compound 3-20]
Plutella xylostella (Reference Test Example 1), mortality of larvae (Plutella xylostella): 55%
Aphis gossypii (Reference Test Example 3), mortality of larvae (Aphis gossypii): 100%
Laodelphax striatella (Reference Test Example 18), mortality of larvae (Laodelphax striatella): 80%

O=C(N=c1ccccn1Cc1ccc(Br)nc1)C(F)F [Compound 4-3]
Plutella xylostella (Reference Test Example 1), mortality of larvae (Plutella xylostella): 100%
Laodelphax striatella (Reference Test Example 18), mortality of larvae (Laodelphax striatella): 100%

O=C(N=c1ccccn1Cc1ccc(Br)nc1)C(F)(F)Cl [Compound 4-4]
Plutella xylostella (Reference Test Example 1), mortality of larvae (Plutella xylostella): 100%
Laodelphax striatella (Reference Test Example 18), mortality of larvae (Laodelphax striatella): 100%

O=C(N=c1ccccn1Cc1ccc(Br)nc1)C(F)(F)C(F)(F)F [Compound 4-5]
Plutella xylostella (Reference Test Example 1), mortality of larvae (Plutella xylostella): 100%
Aphis gossypii (Reference Test Example 3), mortality of larvae (Aphis gossypii): 100%
Laodelphax striatella (Reference Test Example 18), mortality of larvae (Laodelphax striatella): 100%

FC(F)(F)C(=S)N=c1ccccn1Cc1ccc(Br)nc1 [Compound 4-20]
Plutella xylostella (Reference Test Example 1), mortality of larvae (Plutella xylostella): 100%
Aphis gossypii (Reference Test Example 3), mortality of larvae (Aphis gossypii): 100%
Laodelphax striatella (Reference Test Example 18), mortality of larvae (Laodelphax striatella): 100%

O=C(N=c1ccccn1Cc1cnc(Cl)c(F)c1)C(F)F [Compound 5-3]
Plutella xylostella (Reference Test Example 1), mortality of larvae (Plutella xylostella): 100%
Laodelphax striatella (Reference Test Example 18), mortality of larvae (Laodelphax striatella): 100%

O=C(N=c1ccccn1Cc1cnc(Cl)c(F)c1)C(F)(F)Cl [Compound 5-4]
Plutella xylostella (Reference Test Example 1), mortality of larvae (Plutella xylostella): 100%
Laodelphax striatella (Reference Test Example 18), mortality of larvae (Laodelphax striatella): 100%

Fc1cc(Cn2ccccc2=NC(=S)C(F)(F)F)cnc1Cl [Compound 5-20]
Plutella xylostella (Reference Test Example 1), mortality of larvae (Plutella xylostella): 100%
Laodelphax striatella (Reference Test Example 18), mortality of larvae (Laodelphax striatella): 100%

O=C(N=c1ccccn1Cc1cnc(Cl)nc1)C(F)F [Compound 6-3]
Plutella xylostella (Reference Test Example 1), mortality of larvae (Plutella xylostella): 80%
Laodelphax striatella (Reference Test Example 18), mortality of larvae (Laodelphax striatella): 100%

O=C(N=c1ccccn1Cc1cnc(Cl)nc1)C(F)(F)Cl [Compound 6-4]
Plutella xylostella (Reference Test Example 1), mortality of larvae (Plutella xylostella): 90%
Aphis gossypii (Reference Test Example 3), mortality of larvae (Aphis gossypii): 100%
Laodelphax striatella (Reference Test Example 18), mortality of larvae (Laodelphax striatella): 100%

N#Cc1cccn(Cc2ccc(Cl)nc2)c1=NC(=O)C(F)(F)F [Compound 102-2]
Plutella xylostella (Reference Test Example 1), mortality of larvae (Plutella xylostella): 10%
Aphis gossypii (Reference Test Example 3), mortality of larvae (Aphis gossypii): 100%
Laodelphax striatella (Reference Test Example 18), mortality of larvae (Laodelphax striatella): 100%

O=C(N=c1ccccn1Cc1ccc(Cl)nc1)C(F)(F)F [Compound P-212]
Plutella xylostella (Reference Test Example 1), mortality of larvae (Plutella xylostella): 100%
Aphis gossypii (Reference Test Example 3), mortality of larvae (Aphis gossypii): 100%
Laodelphax striatella (Reference Test Example 18), mortality of larvae (Laodelphax striatella): 100%

O=C(N=c1ccccn1Cc1cnc(Cl)s1)C(F)(F)F [Compound P-213]
Plutella xylostella (Reference Test Example 1), mortality of larvae (Plutella xylostella): 100%
Aphis gossypii (Reference Test Example 3), mortality of larvae (Aphis gossypii): 100%
Laodelphax striatella (Reference Test Example 18), mortality of larvae (Laodelphax striatella): 100%

O=C(N=c1ccc(Cl)cn1Cc1ccc(Cl)nc1)C(F)(F)F [Compound P-215]
Plutella xylostella (Reference Test Example 1), mortality of larvae (Plutella xylostella): 100%
Aphis gossypii (Reference Test Example 3), mortality of larvae (Aphis gossypii): 80%
Laodelphax striatella (Reference Test Example 18), mortality of larvae (Laodelphax striatella): 75%

O=C(N=c1ccc(F)cn1Cc1ccc(Cl)nc1)C(F)(F)F [Compound P-216]
Plutella xylostella (Reference Test Example 1), mortality of larvae (Plutella xylostella): 100%
Aphis gossypii (Reference Test Example 3), mortality of larvae (Aphis gossypii): 95%
Laodelphax striatella (Reference Test Example 18), mortality of larvae (Laodelphax striatella): 100%

O=C(N=c1ccc(Cl)cn1Cc1cnc(Cl)s1)C(F)(F)F [Compound P-218]
Plutella xylostella (Reference Test Example 1), mortality of larvae (Plutella xylostella): 100%
Aphis gossypii (Reference Test Example 3), mortality of larvae (Aphis gossypii): 60%

O=C(N=c1ccc(F)cn1Cc1cnc(Cl)s1)C(F)(F)F [Compound P-219]
Plutella xylostella (Reference Test Example 1), mortality of larvae (Plutella xylostella): 80%
Aphis gossypii (Reference Test Example 3), mortality of larvae (Aphis gossypii): 85%

Cc1ccn(Cc2ccc(Cl)nc2)c(=NC(=O)C(F)(F)F)c1 [Compound P-222]
Aphis gossypii (Reference Test Example 3), mortality of larvae (Aphis gossypii): 100%
Laodelphax striatella (Reference Test Example 18), mortality of larvae (Laodelphax striatella): 100%

Cc1ccc(=NC(=O)C(F)(F)F)n(Cc2ccc(Cl)nc2)c1 [Compound P-223]
Aphis gossypii (Reference Test Example 3), mortality of larvae (Aphis gossypii): 75%
Laodelphax striatella (Reference Test Example 18), mortality of larvae (Laodelphax striatella): 75%

O=C(N=c1ccccn1Cc1ccc(Cl)cc1)C(F)(F)F [Compound P-225]
Aphis gossypii (Reference Test Example 3), mortality of larvae (Aphis gossypii): 90%

O=C(N=c1ccccn1Cc1cccnc1)C(F)(F)F [Compound P-226]
Plutella xylostella (Reference Test Example 1), mortality of larvae (Plutella xylostella): 60%
Aphis gossypii (Reference Test Example 3), mortality of larvae (Aphis gossypii): 100%

O=C(N=c1ccccn1Cc1cnc(Cl)c(F)c1)C(F)(F)F [Compound P-227]
Plutella xylostella (Reference Test Example 1), mortality of larvae (Plutella xylostella): 100%
Aphis gossypii (Reference Test Example 3), mortality of larvae (Aphis gossypii): 100%
Laodelphax striatella (Reference Test Example 18), mortality of larvae (Laodelphax striatella): 100%

O=C(N=c1ccccn1Cc1ccc(C(F)(F)F)nc1)C(F)(F)F [Compound P-228]
Plutella xylostella (Reference Test Example 1), mortality of larvae (Plutella xylostella): 30%
Aphis gossypii (Reference Test Example 3), mortality of larvae (Aphis gossypii): 95%
Laodelphax striatella (Reference Test Example 18), mortality of larvae (Laodelphax striatella): 100%

O=C(N=c1ccccn1Cc1ccc(F)nc1)C(F)(F)F [Compound P-229]
Plutella xylostella (Reference Test Example 1), mortality of larvae (Plutella xylostella): 100%
Aphis gossypii (Reference Test Example 3), mortality of larvae (Aphis gossypii): 100%
Laodelphax striatella (Reference Test Example 18), mortality of larvae (Laodelphax striatella): 100%

O=C(N=c1ccccn1Cc1cnc(Cl)c(Cl)c1)C(F)(F)F [Compound P-230]
Plutella xylostella (Reference Test Example 1), mortality of larvae (Plutella xylostella): 100%
Aphis gossypii (Reference Test Example 3), mortality of larvae (Aphis gossypii): 100%

O=C(N=c1ccccn1Cc1ccc(Br)nc1)C(F)(F)F [Compound P-231]
Plutella xylostella (Reference Test Example 1), mortality of larvae (Plutella xylostella): 100%
Aphis gossypii (Reference Test Example 3), mortality of larvae (Aphis gossypii): 100%
Laodelphax striatella (Reference Test Example 18), mortality of larvae (Laodelphax striatella): 100%

O=C(N=c1cc(F)ccn1Cc1ccc(Cl)nc1)C(F)(F)F [Compound P-232]
Aphis gossypii (Reference Test Example 3), mortality of larvae (Aphis gossypii): 80%

O=C(N=c1c(F)cccn1Cc1ccc(Cl)nc1)C(F)(F)F [Compound P-233]
Aphis gossypii (Reference Test Example 3), mortality of larvae (Aphis gossypii): 100%
Laodelphax striatella (Reference Test Example 18), mortality of larvae (Laodelphax striatella): 75%

O=C(N=c1ccccn1Cc1ccc(Cl)nc1)C(Cl)Cl [Compound P-234]
Plutella xylostella (Reference Test Example 1), mortality of larvae (Plutella xylostella): 100%
Aphis gossypii (Reference Test Example 3), mortality of larvae (Aphis gossypii): 100%
Laodelphax striatella (Reference Test Example 18), mortality of larvae (Laodelphax striatella): 100%

O=C(N=c1ccccn1Cc1ccc(Cl)nc1)C(Cl)(Cl)Cl [Compound P-235]
Plutella xylostella (Reference Test Example 1), mortality of larvae (Plutella xylostella): 100%
Aphis gossypii (Reference Test Example 3), mortality of larvae (Aphis gossypii): 95%
Laodelphax striatella (Reference Test Example 18), mortality of larvae (Laodelphax striatella): 75%

O=C(CCl)N=c1ccccn1Cc1ccc(Cl)nc1 [Compound P-236]
Aphis gossypii (Reference Test Example 3), mortality of larvae (Aphis gossypii): 100%

O=C(N=c1ccccn1Cc1ccc(Cl)nc1)C(F)F [Compound P-238]
Plutella xylostella (Reference Test Example 1), mortality of larvae (Plutella xylostella): 100%
Aphis gossypii (Reference Test Example 3), mortality of larvae (Aphis gossypii): 100%
Laodelphax striatella (Reference Test Example 18), mortality of larvae (Laodelphax striatella): 100%

O=C(N=c1ccccn1Cc1ccc(Cl)nc1)C(F)(F)Cl [Compound P-239]
Plutella xylostella (Reference Test Example 1), mortality of larvae (Plutella xylostella): 100%
Aphis gossypii (Reference Test Example 3), mortality of larvae (Aphis gossypii): 100%
Laodelphax striatella (Reference Test Example 18), mortality of larvae (Laodelphax striatella): 100%

O=C(N=c1ccccn1Cc1ccc(Cl)nc1)C(Cl)Br (stereo not drawn) [Compound P-240]
Aphis gossypii (Reference Test Example 3), mortality of larvae (Aphis gossypii): 100%
Laodelphax striatella (Reference Test Example 18), mortality of larvae (Laodelphax striatella): 100%

O=C(N=c1ccccn1Cc1ccc(Cl)nc1)C(Br)Br [Compound P-241]
Aphis gossypii (Reference Test Example 3), mortality of larvae (Aphis gossypii): 100%
Laodelphax striatella (Reference Test Example 18), mortality of larvae (Laodelphax striatella): 100%

O=C(N=c1ccccn1Cc1ccc(Cl)nc1)C(F)(F)C(F)(F)F [Compound P-242]
Plutella xylostella (Reference Test Example 1), mortality of larvae (Plutella xylostella): 100%
Aphis gossypii (Reference Test Example 3), mortality of larvae (Aphis gossypii): 100%
Laodelphax striatella (Reference Test Example 18), mortality of larvae (Laodelphax striatella): 100%

O=C(CBr)N=c1ccccn1Cc1ccc(Cl)nc1 [Compound P-244]
Aphis gossypii (Reference Test Example 3), mortality of larvae (Aphis gossypii): 100%
Laodelphax striatella (Reference Test Example 18), mortality of larvae (Laodelphax striatella): 100%
